Assays:
[1] = test system: leukotriene-induced vascular permeability; test: Inhibition of leukotriene (LTD4)-induced vascular permeability by topical test compound, guinea pigs; format: in vivo, male guinea pigs (Hartley strain); settings: for % Inhibition (± S.E.M.): guinea pig, topical 4 hours prior to LTD4 injection
Procedure: (§1) The test compound was administered to the same number of animals as before by applying one drop (50 microliters) directly on the skin surface of a 10% by weight solution of the test compound in dimethylsulfoxide (DMSO). This amounted to 5 mg of test compound per site of application. […] Evans blue dye (0.5% in saline) was then injected intravenously into each animal, using the same procedure describd for Part (a), above. After thirty minutes the animals were sacrificed, the dorsal skins were removed, and the extent of dye migration was measured as above. The effectiveness of the test compound was calculated as the Percent (%) Inhibition of Leukotriene-Induced Permeability, as follows: [formula] where MWS=mean wheal size.

[2] = test system: arachidonic acid-induced ear edema; test: Mouse ear edema test (in vivo), arachidonic acid-induced; design: species or system CD-1 male mice; settings: for % Inhibition (± S.E.M.): eight mice
Excerpt: Dermatol. 80: 48 (1983), and Humes, Opas and Bonney, "Arachidonic Acid Metabolites in Mouse Ear Edema". Advances in Inflammation Research, 11: 57 (1986).
CD-1 male mice weighing 15 to 25 g were employed, and they were designated as follows: (1) Control Group, in which no arachidonic acid or test compound were to be applied, (2) Arachidonic Acid-Treated Group, in which no test compound was to be applied, and (3) Treated Group, in which the test compound was to be applied first, followed by the application of arachidonic acid. The test compound was again racemic-6-acetyl-7-[5-(4-acetyl-3-hydroxy-2-propylphenoxy)pentyloxy]-3,4-dihydro-2H-1-benzopyran-2-carboxylic acid.
In the case of the Group (3) animals, the test compound, dissolved in acetone, was applied to the dorsal surface of the right ear of the mouse with a 25-microliter pipettor, with the dose of the test compound being varied as shown in Tables 3 and 4. After 0.5 hour in some cases and 4 hours in others, the arachidonic acid was topically applied in the same manner as above to the pretreated ear areas. In each case of arachidonic acid application, an amount of 0.5 mg dissolved in 25 microliters of acetone was used. Application was made topically to the dorsal surface of the right ear with a 25-microliter pipettor. After one hour, the mice were sacrificed by carbon dioxide inhalation. A 6 mm-diameter standard biopsy punch was used to obtain a uniform tissue sample from the ear of each mouse so treated, and the tissue samples were weighed to the nearest 0.1 mg. The percent inhibition of ear edema formation was calculated as follows: [formula]

[3] = test system: leukotriene-induced vascular permeability; test: Inhibition of leukotriene (LTD4)-induced vascular permeability by topical test compound, rats; format: in vivo, male rats (Sprague-Dawley strain); settings: for % Inhibition (± S.E.M.): rat, topical 4 hours prior to LTD4 injection
Procedure: as §1

With `CCCc1c(OCCCCCOc2cc3c(cc2C(C)=O)CCC(C(=O)O)O3)ccc(C(C)=O)c1O` (racemic) [test compound, 6-acetyl-7-[5-(4-acetyl-3-hydroxy-2-propylphenoxy)pentyloxy]-3,4-dihydro-2H-1-benzopyran-2-carboxylic acid] the “% Inhibition (± S.E.M.)” value ([1]; 5.0% in DMSO) was 11 ± 3%, the “% Inhibition (± S.E.M.)” value ([1]; 10.0% in DMSO) was 33 ± 3% and the “% Inhibition (± S.E.M.)” value ([1]; 15.0% in DMSO) was 43 ± 4%. For the same compound, the “% Inhibition (± S.E.M.)” value ([1]; 25.0% in DMSO) was 49 ± 4%, the “inhibition of leukotriene-induced vascular permeability” value ([1]; guinea pigs, 5 mg per site (10% in DMSO) topical, time variation) was “inhibited leukotriene-induced vascular permeability” and the “time of peak activity (inhibition of leukotriene-induced vascular permeability)” value ([1]; guinea pigs, 5 mg per site (10% in DMSO) topical, LTD4 0.4 microgram per site) was 2 to 4 h. The “inhibition of leukotriene-induced vascular permeability increase, variation of concentration” value ([1]; guinea pigs, topical 4 hours prior to leukotriene injection) was “inhibited the leukotriene-induced vascular permeability increase in a dose-related manner”, the “% Inhibition (± S.E.M.)” value ([2]; 0.5 Hour Pretreatment, 0.1 mg applied topically in 25 μl acetone) was 19 ± 10% and the “% Inhibition (± S.E.M.)” value ([2]; 0.5 Hour Pretreatment, 0.2 mg applied topically in 25 μl acetone) was 21 ± 12%. For the same compound, the “% Inhibition (± S.E.M.)” value ([2]; 0.5 Hour Pretreatment, 0.5 mg applied topically in 25 μl acetone) was 42 ± 12%, the “% Inhibition (± S.E.M.)” value ([2]; 0.5 Hour Pretreatment, 1.0 mg applied topically in 25 μl acetone) was 63 ± 4% and the “% Inhibition (± S.E.M.)” value ([2]; 0.5 Hour Pretreatment, 2.0 mg applied topically in 25 μl acetone) was 65 ± 1%. The “% Inhibition (± S.E.M.)” value ([2]; 4 Hour Pretreatment, 0.1 mg applied topically in 25 μl acetone) was 26 ± 9%, the “% Inhibition (± S.E.M.)” value ([2]; 4 Hour Pretreatment, 0.2 mg applied topically in 25 μl acetone) was 31 ± 12% and the “% Inhibition (± S.E.M.)” value ([2]; 4 Hour Pretreatment, 0.5 mg applied topically in 25 μl acetone) was 28 ± 9%. For the same compound, the “% Inhibition (± S.E.M.)” value ([2]; 4 Hour Pretreatment, 1.0 mg applied topically in 25 μl acetone) was 37 ± 7%, the “% Inhibition (± S.E.M.)” value ([2]; 4 Hour Pretreatment, 2.0 mg applied topically in 25 μl acetone) was 68 ± 7% and the inhibition of edema ([2]; amounts up to 2 mg, both 0.5 and 4 hours prior to arachidonic acid application) was “significant inhibition of edema”. For the same compound, the “% Inhibition (± S.E.M.)” value ([3]; 2.5% in DMSO) was 28 ± 4%, the “% Inhibition (± S.E.M.)” value ([3]; 5.0% in DMSO) was 50 ± 6% and the “% Inhibition (± S.E.M.)” value ([3]; 10.0% in DMSO) was 59 ± 6%. The “% Inhibition (± S.E.M.)” value ([3]; 25.0% in DMSO) was 67 ± 5%, the “time of peak activity (inhibition of leukotriene-induced vascular permeability)” value ([3]; rats, relative to guinea pigs (2-4 hours), 5 mg per site (10% in DMSO) topical, LTD4 0.4 microgram per site) was “somewhat later” and the “inhibition of leukotriene-induced vascular permeability” value ([3]; rats, 5 mg per site (10% in DMSO) topical, time variation) was “inhibited leukotriene-induced vascular permeability”. The “inhibition of leukotriene-induced vascular permeability increase, variation of concentration” value ([3]; rats, topical 4 hours prior to leukotriene injection) was “inhibited the leukotriene-induced vascular permeability increase in a dose-related manner”.
